Results reported in patent publication US20260198493A1, “HYDRAZIDE COMPOUND AND AGRICULTURAL/HORTICULTURAL FUNGICIDE” (Nippon Soda Co., Ltd., priority 2022, published 2026).

Columns and labels:
[1] = system: Erysiphe graminis f.sp.tritici; test: Control test of wheat powdery mildew disease (sprayed young wheat seedlings); assay type: in vivo; conditions: Blumeria graminis, 144 h, 125 ppm by mass spray, six days after inoculation
Botrytis cinerea [2] = assay type: cell-based; conditions: 120 h, 25 ppm by volume, Vogel medium, 20° C., five days, dark, read-out: growth inhibition ratio
Botrytis cinerea [3] = test: Control test of cucumber gray mold (sprayed young cucumber seedlings); assay type: in vivo; conditions: 96 h, four days after inoculation; for pest or weed control at 25 ppm: 25 ppm by mass spray; for pest or weed control at 125 ppm: 125 ppm by mass spray
Procedure: Then, the drug liquid was sprayed onto young cucumber seedlings cultivated in a nursery pot (variety “Jihai”-based, cotyledon stage), and then air-dried. […] They were left still in a moist room at 20° C. Four days after inoculation, leaves of the young cucumber seedlings were visually observed, and the control value was calculated from the lesion area ratio in accordance with the following equation. [formula]

Glomerella cingulata = test: Fungicidal effect test against fungi causing grape ripe rot disease; conditions: Colletotrichum gloeosporioides, 72 h, read-out: growth inhibition ratio
Venturia inaequalis = test: Control test of apple scab disease (sprayed young apple seedlings); assay type: in vivo; conditions: 125 ppm by mass spray, 12 to 14 days after inoculation
Colletotrichum acutatum = test: Fungicidal effect test against fungi causing apple anthracnose; conditions: 96 h, read-out: growth inhibition ratio
Fusarium graminearum = test: microbe, parasite or virus in culture; assay type: cell-based; conditions: 96 h, read-out: growth inhibition ratio

COC(=O)N(Cc1ccc(C)cc1C)NC(=O)c1cc(Cl)nnc1Oc1cccc(C2CC2)c1F [b-28]
≥ 75%: pest or weed control at 125 ppm [1] | inhibition of growth at 25 ppm (Botrytis cinerea [2]) | pest or weed control at 25 ppm (Botrytis cinerea [3]) | pest or weed control at 125 ppm (Botrytis cinerea [3]) | inhibition of growth at 25 ppm (Glomerella cingulata) | pest or weed control at 125 ppm (Venturia inaequalis) | inhibition of growth at 25 ppm (Colletotrichum acutatum) | inhibition of growth at 25 ppm (Fusarium graminearum)

COC(=O)N(Cc1ccc(C)cc1C)NC(=O)c1cc(C)ncc1Oc1cccc(Br)c1 [b-31]
≥ 75%: pest or weed control at 125 ppm [1] | inhibition of growth at 25 ppm (Botrytis cinerea [2]) | pest or weed control at 25 ppm (Botrytis cinerea [3]) | pest or weed control at 125 ppm (Botrytis cinerea [3]) | inhibition of growth at 25 ppm (Glomerella cingulata) | pest or weed control at 125 ppm (Venturia inaequalis) | inhibition of growth at 25 ppm (Colletotrichum acutatum) | inhibition of growth at 25 ppm (Fusarium graminearum)

CCOC(=O)N(Cc1ccc(C)cc1C)NC(=O)c1cc(C)ncc1Oc1cccc(C2CC2)c1F [b-33]
≥ 75%: pest or weed control at 125 ppm [1] | inhibition of growth at 25 ppm (Botrytis cinerea [2]) | pest or weed control at 125 ppm (Botrytis cinerea [3]) | inhibition of growth at 25 ppm (Glomerella cingulata) | pest or weed control at 125 ppm (Venturia inaequalis) | inhibition of growth at 25 ppm (Colletotrichum acutatum) | inhibition of growth at 25 ppm (Fusarium graminearum)

COC(=O)N(Cc1ccc(Cl)cc1C)NC(=O)c1cc(C)nnc1Oc1cccc(C2CC2)c1F [b-34]
≥ 75%: pest or weed control at 125 ppm [1] | inhibition of growth at 25 ppm (Botrytis cinerea [2]) | pest or weed control at 25 ppm (Botrytis cinerea [3]) | pest or weed control at 125 ppm (Botrytis cinerea [3]) | inhibition of growth at 25 ppm (Glomerella cingulata) | pest or weed control at 125 ppm (Venturia inaequalis) | inhibition of growth at 25 ppm (Colletotrichum acutatum) | inhibition of growth at 25 ppm (Fusarium graminearum)

COC(=O)N(Cc1ccc(C)cc1C)NC(=O)c1cc(C)nnc1Oc1cccc(C(F)(F)F)c1F [b-36]
≥ 75%: pest or weed control at 125 ppm [1] | inhibition of growth at 25 ppm (Botrytis cinerea [2]) | pest or weed control at 25 ppm (Botrytis cinerea [3]) | pest or weed control at 125 ppm (Botrytis cinerea [3]) | inhibition of growth at 25 ppm (Glomerella cingulata) | pest or weed control at 125 ppm (Venturia inaequalis) | inhibition of growth at 25 ppm (Colletotrichum acutatum) | inhibition of growth at 25 ppm (Fusarium graminearum)

COC(=O)N(Cc1ccc(C)cc1C)NC(=O)c1cc(C)nnc1Oc1cccc(Br)c1F [b-38]
≥ 75%: pest or weed control at 125 ppm [1] | inhibition of growth at 25 ppm (Botrytis cinerea [2]) | pest or weed control at 25 ppm (Botrytis cinerea [3]) | pest or weed control at 125 ppm (Botrytis cinerea [3]) | inhibition of growth at 25 ppm (Glomerella cingulata) | pest or weed control at 125 ppm (Venturia inaequalis) | inhibition of growth at 25 ppm (Colletotrichum acutatum) | inhibition of growth at 25 ppm (Fusarium graminearum)

COC(=O)N(Cc1ccc(C)cc1C)NC(=O)c1nc(C)ncc1Oc1cccc(C2CC2)c1F [b-42, Methyl 2-(5-(3-cyclopropyl-2-fluorophenoxy)-2-methylpyrimidine-4-carbonyl)-1-(2,4-dimethylbenzyl)hydrazine-1-carboxylate]
≥ 75%: pest or weed control at 125 ppm [1] | inhibition of growth at 25 ppm (Botrytis cinerea [2]) | pest or weed control at 25 ppm (Botrytis cinerea [3]) | pest or weed control at 125 ppm (Botrytis cinerea [3]) | inhibition of growth at 25 ppm (Glomerella cingulata) | pest or weed control at 125 ppm (Venturia inaequalis) | inhibition of growth at 25 ppm (Colletotrichum acutatum) | inhibition of growth at 25 ppm (Fusarium graminearum)

CCOC(=O)N(Cc1ccc(C)cc1C)NC(=O)c1nc(C)ncc1Oc1cccc(C2CC2)c1F [b-43]
≥ 75%: pest or weed control at 125 ppm [1] | inhibition of growth at 25 ppm (Botrytis cinerea [2]) | pest or weed control at 25 ppm (Botrytis cinerea [3]) | pest or weed control at 125 ppm (Botrytis cinerea [3]) | inhibition of growth at 25 ppm (Glomerella cingulata) | pest or weed control at 125 ppm (Venturia inaequalis) | inhibition of growth at 25 ppm (Colletotrichum acutatum) | inhibition of growth at 25 ppm (Fusarium graminearum)

COC(=O)N(Cc1ccc(Br)cc1C)NC(=O)c1cc(C)nnc1Oc1cccc(C2CC2)c1F [b-45]
≥ 75%: pest or weed control at 125 ppm [1] | inhibition of growth at 25 ppm (Botrytis cinerea [2]) | pest or weed control at 25 ppm (Botrytis cinerea [3]) | pest or weed control at 125 ppm (Botrytis cinerea [3]) | inhibition of growth at 25 ppm (Glomerella cingulata) | pest or weed control at 125 ppm (Venturia inaequalis) | inhibition of growth at 25 ppm (Colletotrichum acutatum) | inhibition of growth at 25 ppm (Fusarium graminearum)

COC(=O)N(Cc1ccc(C)cc1Cl)NC(=O)c1cc(C)nnc1Oc1cccc(C2CC2)c1F [b-46]
≥ 75%: pest or weed control at 125 ppm [1] | inhibition of growth at 25 ppm (Botrytis cinerea [2]) | pest or weed control at 25 ppm (Botrytis cinerea [3]) | pest or weed control at 125 ppm (Botrytis cinerea [3]) | inhibition of growth at 25 ppm (Glomerella cingulata) | pest or weed control at 125 ppm (Venturia inaequalis) | inhibition of growth at 25 ppm (Colletotrichum acutatum) | inhibition of growth at 25 ppm (Fusarium graminearum)

COC(=O)N(Cc1ccc(C)cc1C)NC(=O)c1cc(C)nnc1Oc1cccc(C(F)(F)F)c1 [b-53]
≥ 75%: pest or weed control at 125 ppm [1] | inhibition of growth at 25 ppm (Botrytis cinerea [2]) | pest or weed control at 25 ppm (Botrytis cinerea [3]) | pest or weed control at 125 ppm (Botrytis cinerea [3]) | inhibition of growth at 25 ppm (Glomerella cingulata) | pest or weed control at 125 ppm (Venturia inaequalis) | inhibition of growth at 25 ppm (Colletotrichum acutatum) | inhibition of growth at 25 ppm (Fusarium graminearum)

COC(=O)N(Cc1ccc(C)cc1C)NC(=O)c1cc(C)nnc1Oc1cccc(Br)c1 [b-55]
≥ 75%: pest or weed control at 125 ppm [1] | inhibition of growth at 25 ppm (Botrytis cinerea [2]) | pest or weed control at 25 ppm (Botrytis cinerea [3]) | pest or weed control at 125 ppm (Botrytis cinerea [3]) | inhibition of growth at 25 ppm (Glomerella cingulata) | pest or weed control at 125 ppm (Venturia inaequalis) | inhibition of growth at 25 ppm (Colletotrichum acutatum) | inhibition of growth at 25 ppm (Fusarium graminearum)

COC(=O)N(Cc1ccc(C)cc1C)NC(=O)c1cc(Br)ncc1Oc1cccc(C2CC2)c1F [b-67]
≥ 75%: pest or weed control at 125 ppm [1] | inhibition of growth at 25 ppm (Botrytis cinerea [2]) | pest or weed control at 25 ppm (Botrytis cinerea [3]) | pest or weed control at 125 ppm (Botrytis cinerea [3]) | inhibition of growth at 25 ppm (Glomerella cingulata) | pest or weed control at 125 ppm (Venturia inaequalis) | inhibition of growth at 25 ppm (Colletotrichum acutatum) | inhibition of growth at 25 ppm (Fusarium graminearum)

COCOc1ccc(CN(NC(=O)c2cc(C)ncc2Oc2cccc(C3CC3)c2F)C(=O)OC)c(C)c1 [b-74]
≥ 75%: pest or weed control at 125 ppm [1] | inhibition of growth at 25 ppm (Botrytis cinerea [2]) | pest or weed control at 25 ppm (Botrytis cinerea [3]) | pest or weed control at 125 ppm (Botrytis cinerea [3]) | inhibition of growth at 25 ppm (Glomerella cingulata) | pest or weed control at 125 ppm (Venturia inaequalis) | inhibition of growth at 25 ppm (Colletotrichum acutatum) | inhibition of growth at 25 ppm (Fusarium graminearum)

COC(=O)N(Cc1ccc(Cl)cc1Cl)NC(=O)c1cc(C)ncc1Oc1cccc(C2CC2)c1F [b-75]
≥ 75%: pest or weed control at 125 ppm [1] | inhibition of growth at 25 ppm (Botrytis cinerea [2]) | pest or weed control at 25 ppm (Botrytis cinerea [3]) | pest or weed control at 125 ppm (Botrytis cinerea [3]) | inhibition of growth at 25 ppm (Glomerella cingulata) | pest or weed control at 125 ppm (Venturia inaequalis) | inhibition of growth at 25 ppm (Colletotrichum acutatum) | inhibition of growth at 25 ppm (Fusarium graminearum)

COC(=O)N(Cc1ccc(Br)cc1C)NC(=O)c1cc(C)ncc1Oc1cccc(C2CC2)c1F [b-76]
≥ 75%: pest or weed control at 125 ppm [1] | inhibition of growth at 25 ppm (Botrytis cinerea [2]) | pest or weed control at 25 ppm (Botrytis cinerea [3]) | pest or weed control at 125 ppm (Botrytis cinerea [3]) | inhibition of growth at 25 ppm (Glomerella cingulata) | pest or weed control at 125 ppm (Venturia inaequalis) | inhibition of growth at 25 ppm (Colletotrichum acutatum) | inhibition of growth at 25 ppm (Fusarium graminearum)

COC(=O)N(Cc1ccc(Cl)cc1C)NC(=O)c1cc(C)ncc1Oc1cccc(C2CC2)c1F [b-77]
≥ 75%: pest or weed control at 125 ppm [1] | inhibition of growth at 25 ppm (Botrytis cinerea [2]) | pest or weed control at 25 ppm (Botrytis cinerea [3]) | pest or weed control at 125 ppm (Botrytis cinerea [3]) | inhibition of growth at 25 ppm (Glomerella cingulata) | pest or weed control at 125 ppm (Venturia inaequalis) | inhibition of growth at 25 ppm (Colletotrichum acutatum) | inhibition of growth at 25 ppm (Fusarium graminearum)

COC(=O)N(Cc1ccc(C)cc1C)NC(=O)c1cc(C)nnc1Oc1cccc(C2CC2)c1 [b-80]
≥ 75%: pest or weed control at 125 ppm [1] | inhibition of growth at 25 ppm (Botrytis cinerea [2]) | pest or weed control at 25 ppm (Botrytis cinerea [3]) | pest or weed control at 125 ppm (Botrytis cinerea [3]) | inhibition of growth at 25 ppm (Glomerella cingulata) | pest or weed control at 125 ppm (Venturia inaequalis) | inhibition of growth at 25 ppm (Colletotrichum acutatum) | inhibition of growth at 25 ppm (Fusarium graminearum)
